Like-named read-outs stand apart in the source and are kept apart here.
Assays:
Test in all cases: Sensitivity test (agar dilution)
M. luteus ATCC9341 = assay type: cell-based, Micrococcus luteus; settings: Micrococcus luteus, M. luteus ATCC9341
Protocol: (§1) The antibacterial activities were tested against various 18 bacteria (27 standard strains) which are representative bacteria caused clinically infectious disease (Staphylococcus aureus 3 strains, Staphylococcus epidermidis 1 strain, Micrococcus luteus 1 strain, Streptococcus pyogenes 1 strain, Enterococcus faecalis 1 strain, Enterococcus faecium 1 strain, Bacillus subtilis 1 strain, Escherichia coli 3 strains, Klebsiella pneumoniae 1 strain, Proteus mirabilis 1 strain, Proteus vulgaris 2 strains, Pseudomonas aeruginosa 3 strains, Serratia marcescens 2 strains, Enterobacter aerogenes 1 strain, Stenotrophomonas maltophilia 1 strain, Enterobacter cloacae 1 strain, Citrobacter freundii 1 strain, Moraxella catarrhalis 2 strains).
(§2) According to the standard method of Japan Chemotherapeutic Society (Chemotherapy, vol. […], p 76-79 (1981)) the test was carried out using the agar dilution method. After dissolving test samples in distilled water, agar medium containing the test samples was prepared in such a manner that the final concentration became twice serial dilution by pouring serially diluted combination drug solution or a single drug solution into agar medium. As agar medium was used Mueller Hinton Agar medium (MHA). Then, each strain was cultivated over night at 37° C. in an incubator and suspended in buffered saline solution with gelatin (BSG) in the concentration of about 10^6 CFU/ml. The suspension (about 5 μl) containing test strains was inoculated to the medium containing the test samples by Micro Planter.
(§3) When the sample is subjected to sensitivity test, this mixed solution was diluted by twice serial dilution method.
(§4) Furthermore, when the drug is solely used, each test sample was used as it is, and diluted by twice serial dilution method from the maximum concentration to the minimum concentration.
(§5) FIC index based on MIC value was calculated. […] Namely, when FIC index calculated by the following formula is equal or less than 1, the enhanced effect of the combination drug in said ratio is considered as positive. When FIC index is over 1, the enhanced effect of the combination drug in said ratio is considered as negative.
(§6) Formula of FIC index: FIC index=(MIC of Drug A in combination/MIC of Drug A alone)+(MIC of Drug B in combination/MIC of Drug B alone) N.C. in tables means being not calculated.

S. epidermidis IAM1296 = assay type: cell-based, Staphylococcus epidermidis; settings: Staphylococcus epidermidis, S. epidermidis IAM1296
Protocol: as §1, §2, §3, §4, §5, §6

E. faecalis ATCC19433 = assay type: cell-based, Enterococcus faecalis; settings: Enterococcus faecalis, E. faecalis ATCC19433
Protocol: as §1, §2, §3, §4, §5, §6

Str. pyogenes Cook = assay type: cell-based, Streptococcus pyogenes; settings: Streptococcus pyogenes, Str. pyogenes Cook
Protocol: as §1, §2, §3, §4, §5, §6

[1] = tested on: S. aureus SP-7928 (homo-MRSA); assay type: cell-based, Staphylococcus aureus; settings: Staphylococcus aureus, MRSA, S. aureus SP-7928 (homo-MRSA)
Summary of the method: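 Under the Japan Chemotherapeutic Society protocol, MIC was recorded as the lowest agar concentration, in twofold dilutions in MHA, preventing growth of about 10^6 CFU/ml inocula. FIC indices were derived for drug pairs.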

P. aeruginosa IFO3451 = assay type: cell-based, Pseudomonas aeruginosa; settings: Pseudomonas aeruginosa, P. aeruginosa IFO3451
Protocol: as §1, §2, §3, §4, §5, §6

P. aeruginosa TL-2666 = assay type: cell-based, Pseudomonas aeruginosa; settings: Pseudomonas aeruginosa, P. aeruginosa TL-2666
Protocol: as §1, §2, §3, §4, §5, §6

P. aeruginosa TL-2667 = assay type: cell-based, Pseudomonas aeruginosa; settings: Pseudomonas aeruginosa, P. aeruginosa TL-2667
Protocol: as §1, §2, §3, §4, §5, §6

E. coli NIHJ JC-2 = assay type: cell-based, Escherichia coli; settings: Escherichia coli, E. coli NIHJ JC-2
Protocol: as §1, §2, §3, §4, §5, §6

E. coli ML1410 = assay type: cell-based, Escherichia coli; settings: Escherichia coli, E. coli ML1410
Protocol: as §1, §2, §3, §4, §5, §6

K. pneumoniae ATCC10031 = assay type: cell-based, Klebsiella pneumoniae; settings: Klebsiella pneumoniae, K. pneumoniae ATCC10031
Protocol: as §1, §2, §3, §4, §5, §6

E. cloacae GN7471 = assay type: cell-based, Enterobacter cloacae; settings: Enterobacter cloacae, E. cloacae GN7471
Protocol: as §1, §2, §3, §4, §5, §6

P. vulgaris GN7919 = assay type: cell-based, Proteus vulgaris; settings: Proteus vulgaris, P. vulgaris GN7919
Protocol: as §1, §2, §3, §4, §5, §6

[2] = Concomitant (PAPM:SM = 1:1), read-out: MIC concomitant
[3] = drug alone, read-out: MIC alone

## CC(=N)N1CC[C@H](SC2=C(C(=O)O)N3C(=O)[C@H]([C@@H](C)O)[C@H]3C2)C1 [PAPM, panipenem]
M. luteus ATCC9341; ATCC9341, Concomitant (PAPM:SM = 1:1), read-out: MIC concomitant
  MIC: ≤ 0.002 µg/mL
M. luteus ATCC9341; ATCC9341, drug alone, read-out: MIC alone
  MIC: 0.031 µg/mL
S. epidermidis IAM1296; IAM1296, Concomitant (PAPM:SM = 1:1), read-out: MIC concomitant
  MIC: 0.016 µg/mL
S. epidermidis IAM1296; IAM1296, drug alone, read-out: MIC alone
  MIC: 0.5 µg/mL
E. faecalis ATCC19433; ATCC19433, Concomitant (PAPM:SM = 1:1), read-out: MIC concomitant
  MIC: 1 µg/mL
E. faecalis ATCC19433; ATCC19433, drug alone, read-out: MIC alone
  MIC: 2 µg/mL
Str. pyogenes Cook; [2]
  MIC: ≤ 0.002 µg/mL
Str. pyogenes Cook; [3]
  MIC: 0.008 µg/mL
[1]; [2]
  MIC: 2 µg/mL
[1]; [3]
  MIC: > 32 µg/mL
P. aeruginosa IFO3451; IFO3451, Concomitant (PAPM:SM = 1:1), read-out: MIC concomitant
  MIC: 2 µg/mL
P. aeruginosa IFO3451; IFO3451, drug alone, read-out: MIC alone
  MIC: 4 µg/mL
P. aeruginosa TL-2666; TL2666, Concomitant (PAPM:SM = 1:1), read-out: MIC concomitant
  MIC: 8 µg/mL
P. aeruginosa TL-2666; TL2666, drug alone, read-out: MIC alone
  MIC: 8 µg/mL
P. aeruginosa TL-2667; TL2667, Concomitant (PAPM:SM = 1:1), read-out: MIC concomitant
  MIC: 16 µg/mL
P. aeruginosa TL-2667; TL2667, drug alone, read-out: MIC alone
  MIC: 16 µg/mL
E. coli NIHJ JC-2; NIHJJC2, Concomitant (PAPM:SM = 1:1), read-out: MIC concomitant
  MIC: 0.063 µg/mL
E. coli NIHJ JC-2; NIHJJC2, drug alone, read-out: MIC alone
  MIC: 0.25 µg/mL
E. coli ML1410; ML1410, Concomitant (PAPM:SM = 1:1), read-out: MIC concomitant
  MIC: 0.125 µg/mL
E. coli ML1410; ML1410, drug alone, read-out: MIC alone
  MIC: 0.5 µg/mL
K. pneumoniae ATCC10031; ATCC10031, Concomitant (PAPM:SM = 1:1), read-out: MIC concomitant
  MIC: 0.016 µg/mL
K. pneumoniae ATCC10031; ATCC10031, drug alone, read-out: MIC alone
  MIC: 0.125 µg/mL
E. cloacae GN7471; GN7471, Concomitant (PAPM:SM = 1:1), read-out: MIC concomitant
  MIC: 0.125 µg/mL
E. cloacae GN7471; GN7471, drug alone, read-out: MIC alone
  MIC: 0.25 µg/mL
P. vulgaris GN7919; GN7919, Concomitant (PAPM:SM = 1:1), read-out: MIC concomitant
  MIC: 0.5 µg/mL
P. vulgaris GN7919; GN7919, drug alone, read-out: MIC alone
  MIC: 1 µg/mL
